Test results: patent publication US10472352B2, “Rac inhibitors” (Geneyus LLC, priority 2017, dated 2019)

Tests used:
[1] = system: MCF-7 human breast cancer cell line; experiment: Cell Viability Assay (MCF7), PrestoBlue; type: cell-based; settings: MCF7, 72 h, MCF-7 cells, three days after drug treatment
In short: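 MCF-7 cells seeded 24 hours before dosing with 0 to 200 μM compound (11 concentrations, 1% DMSO final) for three days. PrestoBlue (resazurin) added to 10% final, 1 hour incubation, fluorescence at ex 560/em 590 nm; percentage living cells relative to control wells.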

[2] = system: androgen receptor splice variant (ARV7) in LNCaP cells; experiment: LNCaP ARE Luciferase Assay, ARV7 cells; type: cell-based; settings: LNCaP cells overexpressing ARV7, 10 nM DHT, 4 hours; 5 or 10 uM 0032661
Experimental: (§1) LNCaP prostate cancer cells as well as LNCaP cells that overexpress the oncogenic androgen receptor splice variant (designated ARV7) were engineered to express an Androgen Receptor (AR) luciferase reporter (SABiosciences). […] After 4 hours, cell lysate was harvested. 50 μg protein lysates were used in a luciferase assay.

[3] = biological target: His-Rac1 / GST-PBD (PAK Binding Domain) (Homo sapiens, UniProt P63000); experiment: Rac Activation AlphaScreen Assay (Rac1 AS); type: biochemical; settings: 500 nM GTPγS, 37° C., 1 hour; 'positive' = signal generated was higher than the positive control
Experimental: AlphaScreen® assays were performed in 96-well microplates in a final reaction volume of 60 μl. Recombinant His-Rac1, recombinant GST-PBD (PAK Binding Domain), donor and acceptor beads (PerkinElmer), and inhibitors were incubated in exchange buffer (20 mM Tris pH 7.5, 50 mM NaCl, 1 mM MgCl2, 1 mM EDTA, 500 nM GTPγS (guanosine 5′-[γ-thio]triphosphate)) at 37° C. Readings were performed on a Tecan M1000 pro microplate reader after 1 hour.

[4] = system: PSA in LNCaP prostate cancer cells; experiment: Inhibition of Increased Protein Levels of PSA (immunoblot); type: cell-based; settings: 10 nM DHT, 18 hours, 5 uM enzalutamide, 10, 15 or 20 uM 0032661
Experimental: After 18 hours protein was harvested. SDS-PAGE followed by immunoblotting of samples was performed using standard techniques. Protein lysates were immunoblotted for the Androgen Receptor (AR), PSA, and Actin.

Rac1 protein = biological target: T1, Rac1 protein (Homo sapiens, UniProt P63000); experiment: Fluorescence Polarization Assay (Rac1 FP); type: binding; settings: 125 nM his-tagged Rac1, 12.5 nM Bodipy-TR GTPγS, 30 minutes at 37° C.
T1 construct: purchased Cytoskeleton Inc. RC01
In short: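 His-tagged recombinant Rac1 (125 nM final) plus 12.5 nM Bodipy-TR GTPγS incubated with serially diluted compound for 30 min at 37 °C. Buffer: 20 mM Tris pH 7.5, 50 mM NaCl, 1 mM MgCl, 1 mM EDTA. Fluorescence polarization read at 590/625 nm excitation/emission.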

[5] = system: estrogen receptor response genes Cyclin D1 and pS2 in MCF7 breast cancer cells; experiment: Inhibition of Estrogen Receptor Target Gene Protein Expression (immunoblot); type: cell-based; settings: MCF7, 10 nM E2, 18 hours
Experimental: After 18 hours, protein was harvested. SDS-PAGE followed by immunoblotting of samples was performed using standard techniques. Protein lysates were immunoblotted for Estrogen Receptor (ER), Cyclin D1, pS2, and Actin.

[6] = system: androgen receptor response gene (PSA) in LNCaP prostate cancer cells; experiment: Inhibition of Androgen Receptor Target Gene Transcription (PSA qPCR); type: cell-based; settings: 10 nM DHT, 4 hours, 10 uM bicalutamide, 10 uM enzalutamide, 12.5 or 25 uM 0032661
Experimental: After 4 hours, RNA was harvested and converted into cDNA. qPCR analysis for PSA was performed on all samples and normalized to expression of GAPDH. The data, shown in FIG. 11, is expressed as fold change relative to PSA expression of the cFBS sample.

MCF7 breast cancer cells = experiment: Tumor Burden, MCF7 tumors in mice; type: in vivo, Nod/Scid-gamma null immunocomprimised mice
Experimental: MCF7 breast cancer cells grown were innoculated into Nod/Scid-gamma null immunocomprimised mice. The resulting tumors were allowed to reach approximately 100 mm^3 in size and then mice were randomized into vehicle, Faslodex®, 0032661, or Faslodex® plus 0032661 treatment groups. Faslodex® treated mice were dosed with 500 ug Faslodex® once a week via intramuscular injection. 0032661 treated mice were dosed with 35 mg/kg 0032661 five days a week via intraparatoneal injection. Tumors were measured by calipers twice a week.

[7] = system: Androgen Receptor (AR) luciferase reporter in LNCaP prostate cancer cells; experiment: Inhibition of Androgen Receptor Luciferase Expression; type: cell-based; settings: 10 nM DHT, 4 hours, 1 uM bicalutamide, 1 uM enzalutamide, 5 or 10 uM 0032661
Experimental: After 4 hours, cell lysate was harvested. 50 μg protein lysates were used in a luciferase assay. The data, shown in FIG. 12, is expressed as relative luciferase units (RLU).

[8] = system: estrogen receptor response gene (SDF) in MCF7 breast cancer cells; experiment: Inhibition of Estrogen Receptor Target Gene Transcription (SDF qPCR); type: cell-based; settings: MCF7, 10 nM estradiol, 4 hours
Experimental: After 4 hours, RNA was harvested and converted into cDNA. qPCR analysis for SDF was performed on all samples and normalized to expression of GAPDH. The data, shown in FIG. 7, is expressed as fold change relative to SDF expression of the cFBS sample.

[9] = system: Androgen Receptor (AR) luciferase reporter in LNCaP prostate cancer cells; experiment: LNCaP ARE Luciferase Assay; type: cell-based; settings: 10 nM DHT, 4 hours, 1 uM bicalutamide, 1 uM enzalutamide, 5 or 10 uM 0032661
Experimental: as §1

[10] = 1 uM fulvestrant, 5 or 10 uM 0032661

- IC50 [1]: 6.6 µM
- IC50 [3]: 44.8 µM
- IC50 (Rac1 protein): 3.25 µM
SMILES: FC(F)(F)c1ccc2c(SCCCCCCn3cnc(CN4CCOCC4)c3)ccnc2c1 [Compound 0032661, 4-[[1-[6-[[7-(trifluoromethyl)-4-quinolyl]sulfanyl]hexyl]imidazol-4-yl]methyl]morpholine]
- luciferase expression of the ARV7 splice variant [2]: inhibited luciferase expression of the ARV7 splice variant
- increase in protein levels of PSA [4]: inhibit the increase in protein levels of PSA
- estrogen receptor target gene protein expression, combination ([5]; 1 uM fulv plus 5 uM 0032661): reduces estrogen receptor target gene protein expression more than either single treatment alone
- protein levels of estrogen receptor target genes (Cyclin D1, pS2) [5, 10]: inhibit the increase in protein levels of estrogen receptor target genes
- androgen receptor target gene transcription (PSA) [6]: inhibit the androgen receptor target gene transcription
- tumor burden, combination (MCF7 breast cancer cells; 500 ug Faslodex once a week intramuscular plus 35 mg/kg 0032661 five days a week): reduces tumor burden more than either single treatment alone
- anti-tumoral effect (tumor size by calipers) (MCF7 breast cancer cells; 35 mg/kg five days a week, intraperitoneal): strong anti-tumoral effects
- androgen receptor luciferase expression (RLU) [7]: inhibit the androgen receptor luciferase expression
- SDF gene expression, combination ([8]; 1 uM fulvestrant plus 5 uM 0032661): reduces SDF gene expression more than either single treatment alone
- estrogen receptor target gene transcription (SDF) [8, 10]: inhibit the estrogen receptor target gene transcription
- androgen receptor luciferase expression (fold activation) [9]: inhibit the androgen receptor luciferase expression
